One data set has as its target T1, 5-HT1A receptors (Rattus norvegicus, UniProt P19327).
T1 construct: 5-HT1A receptors in hippocampus membranes of rats; from tissue; host or cells: rat hippocampus membranes
T1 sequence (P19327 1-422): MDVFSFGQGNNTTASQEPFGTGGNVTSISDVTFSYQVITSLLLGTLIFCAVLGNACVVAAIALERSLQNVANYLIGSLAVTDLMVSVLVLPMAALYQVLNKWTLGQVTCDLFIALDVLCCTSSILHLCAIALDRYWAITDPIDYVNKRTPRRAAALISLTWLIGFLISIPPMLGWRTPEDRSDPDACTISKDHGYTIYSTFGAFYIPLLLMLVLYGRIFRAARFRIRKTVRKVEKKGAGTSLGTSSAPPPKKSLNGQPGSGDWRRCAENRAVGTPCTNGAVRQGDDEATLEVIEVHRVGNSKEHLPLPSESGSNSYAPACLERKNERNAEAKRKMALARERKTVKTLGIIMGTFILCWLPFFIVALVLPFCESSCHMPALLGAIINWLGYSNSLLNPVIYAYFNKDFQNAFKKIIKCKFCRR
Kind of data set: Affinity to the 5-HT1A receptor: [3H]-8-OH-DPAT binding in hippocampus membranes. To be noted: displacement of [3H]-8-OH-DPAT, hippocampus membranes of rats; Ki calculated from IC50. As to the method:
1. Affinity to the 5-HT1A Receptor
(Dompert et al., Naunyn-Schmiedeberg's Arch. Pharmacol. 1985, 328, 467-470).
In this test, binding of [^3H]-8-OH-DPAT to 5-HT1A receptors in hippocampus membranes of rats is measured.
In the binding test, IC50 values are determined which state at which concentration of test substance 50% of bound radio ligand is displaced. Taking into account the dissociation constants and the concentration of radio ligand, this is used to calculate the inhibition constant Ki.

Each structure is given as a SMILES string. Where a name gives a salt, the structure may show the parent alone.

A word on the melting point: it is the temperature, or range, at which the solid turns liquid. A word on the Ki: it is the equilibrium dissociation constant of an inhibitor or competing ligand from its target.

On to `O=C1c2ccccc2S(=O)(=O)N1CCCCNC[C@H]1CCc2cc(O)ccc2O1` (as salt: hydrochloride) [Example 2, 2-[4-({[(2R)-6-Hydroxy-3,4-dihydro-2H-chromen-2-yl]methyl}amino)butyl]-1,2-benzisothiazol-3(2H)-one 1,1-dioxide hydrochloride], for which the melting point was in the range of 220 to 222 °C.
On to `COc1cc2c(cc1O)O[C@@H](CNCCCCN1C(=O)c3ccccc3S1(=O)=O)CC2` [Example 1, (R)-(−)-2-(4-{[(7-Hydroxy-6-methoxy-3,4-dihydro-2H-chromen-2-yl)methyl]-amino}butyl)-1,2-benzisothiazol-3(2H)-one 1,1-dioxide hydrochloride], for which the Ki on 5-HT1A receptors is 3.15 nM.
Same read-out and setting: the result for `O=C1c2ccccc2S(=O)(=O)N1CCCCNC[C@H]1CCc2cc(O)ccc2O1` [Example 2, 2-[4-({[(2R)-6-Hydroxy-3,4-dihydro-2H-chromen-2-yl]methyl}amino)butyl]-1,2-benzisothiazol-3(2H)-one 1,1-dioxide hydrochloride] reads 1.93 nM.

The values above are taken from patent US6919360B2, “Benzisothiazolyl-substituted aminomethyl chromanes for treating diseases of the central nervous system” (Bayer HealthCare AG, priority 2001, dated 2005).
